Assays:
Assay in all cases: Cell proliferation assay
Format in all cases: cell-based, Homo sapiens
HTC116 = conditions: HTC116, colorectal carcinoma, 72 hours
Method: (§1) To quantify cell proliferation, either the nuclei of live cells were counted following staining with 4’,6-diamidino-2-phenylindole (DAPI; Sigma-Aldrich, Burlington, MA, USA), or metabolically active cells were detected using a CellTiter-Glo assay (Promega Corporation, Madison, WI, USA). Cells from a range of human and mammalian tumor cell lines (American Type Culture Collection, Manassas, VA, USA) were seeded at 4000 cells per well in 100 μL of culture medium in a 96-well plate and incubated overnight at 37°C with 5% CO2. […] In the DAPI staining method, cells were washed using 1× phosphate-buffered saline (PBS; Gibco Thermo Fisher Scientific, Waltham, MA, USA), fixed with 4% formaldehyde, permeabilized with 0.2% Triton X-100 (Sigma-Aldrich), washed again, and stained with 1 μg/mL DAPI to visualize cell nuclei. Cells were washed with 1× PBS three times, and 100 μL 1× PBS was added to each well. Plates were scanned using an IN Cell Analyzer 2200 (GE Healthcare Life Sciences, Chicago, IL, USA) and the number of cells per well was recorded. In the CellTiter-Glo assay, 60 μL of CellTiter-Glo luminescent solution was added to each well after incubation with the test compounds, and the assay plate was scanned using a Tecan Infinite M1000 PRO microplate reader (Tecan Group AG, Männedorf, Switzerland) to record luminescent signals.

NCI-H520 = conditions: NCI-H520, lung carcinoma, 72 hours
Method: as §1

NCI-H1975 = conditions: NCI-H1975, lung, NSCLC, 72 hours
Method: as §1

NCI-H1915 = conditions: NCI-H1915, lung, NSCLC, 72 hours
Method: as §1

SK-N-SH = conditions: brain, neuroblastoma, 72 hours
Method: as §1

DBTRG-05MG = conditions: brain, glioblastoma, 72 hours
Method: as §1

Huh-1 = conditions: Huh-1, liver, hepatocellular carcinoma, 72 hours
Method: as §1

MCF-7 = conditions: MCF-7, breast carcinoma, 72 hours
Method: as §1

SNU-886 = conditions: SNU-886, liver, hepatocellular carcinoma, 72 hours
Method: as §1

SK-HEP-1 = conditions: SK-HEP-1, liver, hepatocellular carcinoma, 72 hours
Method: as §1

Huh-7 = conditions: Huh-7, liver, hepatocellular carcinoma, 72 hours
Method: as §1

HCC827 = conditions: HCC827, lung carcinoma, 72 hours
Method: as §1

U251 = conditions: U251, brain, glioblastoma, 72 hours
Method: as §1

MOG-G-UVW = conditions: brain, grade III astrocytoma, 72 hours
Method: as §1

CHP-212 = conditions: CHP-212, brain, neuroblastoma, 72 hours
Method: as §1

SNU-423 = conditions: SNU-423, liver, hepatocellular carcinoma, 72 hours
Method: as §1

MDA-MB-468 = conditions: MDA-MB-468, breast carcinoma, 72 hours
Method: as §1

HLF = conditions: lung, epidermoid carcinoma, 72 hours
Method: as §1

HCT15 = conditions: HCT15, colorectal carcinoma, 72 hours
Method: as §1

NCI-H1581 = conditions: NCI-H1581, lung, NSCLC, 72 hours
Method: as §1

SK-N-AS = conditions: brain, neuroblastoma, 72 hours
Method: as §1

KNS-81 = conditions: KNS-81, brain, glioblastoma, 72 hours
Method: as §1

SNU-761 = conditions: SNU-761, lung carcinoma, 72 hours
Method: as §1

Li-7 = conditions: Li-7, liver, hepatocellular carcinoma, 72 hours
Method: as §1

U87/DK = conditions: brain, glioblastoma, 72 hours
Method: as §1

SW948 = conditions: SW948, colon carcinoma, 72 hours
Method: as §1

Caco-2 = conditions: Caco-2, colorectal carcinoma, 72 hours
Method: as §1

NCI-H1838 = conditions: NCI-H1838, lung, NSCLC, 72 hours
Method: as §1

SNU-368 = conditions: SNU-368, liver, hepatocellular carcinoma, 72 hours
Method: as §1

LS174T = conditions: colon carcinoma, 72 hours
Method: as §1

A172 = conditions: A172, brain, glioblastoma, 72 hours
Method: as §1

HL7702 = conditions: HL7702, liver, 72 hours
Method: as §1

A549 = conditions: A549, lung carcinoma, 72 hours
Method: as §1

IMR32 = conditions: IMR32, brain, neuroblastoma, 72 hours
Method: as §1

## CC1=Nc2c(F)cc(-c3nc(Nc4ccc(C5CCN(C)CC5)cn4)ncc3F)cc2C12CCCC2 [GLR2007]
HTC116
  IC50: 38 nM
NCI-H520
  IC50: 241 nM
NCI-H1975
  IC50: 10 nM
NCI-H1915
  IC50: 53 nM
SK-N-SH
  IC50: 32 nM
DBTRG-05MG
  IC50: 6 nM
Huh-1
  IC50: 261 nM
MCF-7
  IC50: 2 nM
SNU-886
  IC50: 6 nM
SK-HEP-1
  IC50: 36 nM
Huh-7
  IC50: 43 nM
HCC827
  IC50: 15 nM
U251
  IC50: 53 nM
MOG-G-UVW
  IC50: 43 nM
CHP-212
  IC50: 18 nM
SNU-423
  IC50: 19 nM
MDA-MB-468
  IC50: 1940 nM
HLF
  IC50: 2010 nM
HCT15
  IC50: 43 nM
NCI-H1581
  IC50: 1120 nM
SK-N-AS
  IC50: 66 nM
KNS-81
  IC50: 33 nM
SNU-761
  IC50: 8 nM
Li-7
  IC50: 712 nM
U87/DK
  IC50: 3 nM
SW948
  IC50: 189 nM
Caco-2
  IC50: 453 nM
NCI-H1838
  IC50: 48 nM
SNU-368
  IC50: 13 nM
LS174T
  IC50: 160 nM
A172
  IC50: 41 nM
HL7702
  IC50: 1940 nM
A549
  IC50: 66 nM
IMR32
  IC50: 21 nM

## CCN1CCN(Cc2ccc(Nc3ncc(F)c(-c4cc(F)c5nc(C)n(C(C)C)c5c4)n3)nc2)CC1 [Abemaciclib, abemaciclib, reference compound]
HTC116; Homo sapiens
  IC50: 76 nM
NCI-H520; Homo sapiens
  IC50: 364 nM
NCI-H1975; Homo sapiens
  IC50: 112 nM
NCI-H1915; Homo sapiens
  IC50: 324 nM
SK-N-SH; Homo sapiens
  IC50: 80 nM
DBTRG-05MG; Homo sapiens
  IC50: 13 nM
Huh-1; Homo sapiens
  IC50: 365 nM
MCF-7; Homo sapiens, MCF7
  IC50: 6 nM
SNU-886; Homo sapiens
  IC50: 25 nM
SK-HEP-1; Homo sapiens, SK-HEP1
  IC50: 6 nM
Huh-7; Homo sapiens
  IC50: 75 nM
HCC827; Homo sapiens
  IC50: 16 nM
U251; Homo sapiens, U-251
  IC50: 151 nM
MOG-G-UVW; Homo sapiens
  IC50: 72 nM
CHP-212; Homo sapiens
  IC50: 32 nM
SNU-423; Homo sapiens
  IC50: 48 nM
MDA-MB-468; Homo sapiens
  IC50: 1250 nM
HLF; Homo sapiens
  IC50: 4950 nM
HCT15; Homo sapiens, HCT-15
  IC50: 294 nM
NCI-H1581; Homo sapiens
  IC50: 3230 nM
SK-N-AS; Homo sapiens
  IC50: 138 nM
KNS-81; Homo sapiens
  IC50: 106 nM
SNU-761; Homo sapiens
  IC50: 54 nM
Li-7; Homo sapiens
  IC50: 6290 nM
U87/DK; Homo sapiens
  IC50: 15 nM
SW948; Homo sapiens
  IC50: 586 nM
Caco-2; Homo sapiens
  IC50: 395 nM
NCI-H1838; Homo sapiens
  IC50: 90 nM
SNU-368; Homo sapiens
  IC50: 34 nM
LS174T; Homo sapiens
  IC50: 96 nM
A172; Homo sapiens, A 172
  IC50: 112 nM
HL7702; Homo sapiens, L02
  IC50: 1720 nM
A549; Homo sapiens
  IC50: 104 nM
IMR32; Homo sapiens, IMR-32
  IC50: 25 nM

Reference: paper PMC9403987 (Frontiers in Oncology, 2022)
